Test results taken from US20230053540A1, “TREATMENT OF LIVER INJURY” (Massachusetts Institute of Technology, priority 2019, published 2023).

Tested on: hepatocytes
Assay: Seq-Well scRNA-Seq of hepatocytes after APAP overdose (signature scores, DEG vs untreated)
Assay type: in vivo, mouse
[1] = cluster A96 (APAP, 96 h) vs other clusters, Wilcox
[2] = cluster A96, DEG between treatment (APAP and PH)

## CC(=O)Nc1ccc(O)cc1 [APAP, acetaminophen]
Cluster A48 (APAP, 48 h)
  avg_logFC Snx3: 0.2562
  avg_logFC Sord: 0.3763
  avg_logFC St3gal5: 0.3766
  avg_logFC Stbd1: 0.2667
  avg_logFC Sult1a1: 0.3856
  avg_logFC Sult1d1: 0.5282
  avg_logFC Syvn1: 0.2867
  avg_logFC Tcea3: 0.3934
  avg_logFC Tef: 0.3162
  avg_logFC Tmbim4: 0.3931
  avg_logFC Tmbim6: 0.3567
  avg_logFC Tmem219: 0.2647
  avg_logFC Ttc36: 0.6145
  avg_logFC Ttpa: 0.4757
  avg_logFC Ttr: 0.4205
  avg_logFC Ugt2b5: 0.6108
  avg_logFC Ugt2b36: 0.3503
  avg_logFC Upb1: 0.3631
  avg_logFC Usmg5: 0.4173
  avg_logFC Vnn3: 0.3054
  avg_logFC Vtn: 0.3638
  avg_logFC Yipf3: 0.2702
  avg_logFC Zfp91: 0.3221
Cluster A96
  pct.1, gene Abcc3: 0.733
  pct.1, gene Acaa1b: 0.986
  pct.1, gene Acat1: 0.917
  pct.1, gene Acot1: 0.459
  pct.1, gene Agpat6: 0.743
  pct.1, gene Agt: 0.912
  pct.1, gene Akr1d1: 0.721
  pct.1, gene Aldh9a1: 0.884
  pct.1, gene Aplp2: 0.826
  pct.1, gene Apo17a: 0.559
  pct.1, gene Apoc2: 0.901
  pct.1, gene Aqp9: 0.801
  pct.1, gene Arl4a: 0.517
  pct.1, gene Asl: 0.896
  pct.1, gene Baat: 0.862
  pct.1, gene Bnip3: 0.716
  pct.1, gene Cd36: 0.299
  pct.1, gene Ces1e: 0.71
  pct.1, gene Cox5a: 0.813
  pct.1, gene Cox6a1: 0.943
  pct.1, gene Cox8a: 0.737
  pct.1, gene Cpeb4: 0.527
  pct.1, gene Cpox: 0.634
  pct.1, gene Cpt1a: 0.837
  pct.1, gene Creg1: 0.985
  pct.1, gene Csad: 0.843
  pct.1, gene Ctage5: 0.837
  pct.1, gene Cth: 0.944
  pct.1, gene Cxcl12: 0.635
  pct.1, gene D4Wsu53e: 0.597
  pct.1, gene Decr2: 0.813
  pct.1, gene Dhdh: 0.734
  pct.1, gene Etfdh: 0.811
  pct.1, gene Etnppl: 0.677
  pct.1, gene F5: 0.858
  pct.1, gene Fmo1: 0.606
  pct.1, gene G0s2: 0.525
  pct.1, gene G6pc: 0.86
  pct.1, gene Gabarapl1: 0.881
  pct.1, gene Gadd45b: 0.452
  pct.1, gene Gas5: 0.68
  pct.1, gene Gm4952: 0.663
  pct.1, gene Gsta2: 0.522
  pct.1, gene Gstt3: 0.541
  pct.1, gene Gyk: 0.616
  pct.1, gene Hmgcl: 0.871
  pct.1, gene Hmgcs1: 0.858
  pct.1, gene Hpgd: 0.588
  pct.1, gene Hsd17b7: 0.56
  pct.1, gene Hsd17b10: 0.841
  pct.1, gene Igfbp1: 0.826
  pct.1, gene Kif1b: 0.686
  pct.1, gene Lcat: 0.886
  pct.1, gene Mia3: 0.81
  pct.1, gene Ndufa3: 0.737
  pct.1, gene Ndufa7: 0.818
  pct.1, gene Nr1i3: 0.625
  pct.1, gene Oat: 0.653
  pct.1, gene Pon1: 0.965
  pct.1, gene Por: 0.858
  pct.1, gene Ppp1r3b: 0.536
  pct.1, gene Ppp2r5a: 0.764
  pct.1, gene Ptms: 0.806
  pct.1, gene Pxmp4: 0.687
  pct.1, gene Rdh16: 0.494
  pct.1, gene Rdx: 0.824
  pct.1, gene Rgn: 0.899
  pct.1, gene Sc4mol: 0.781
  pct.1, gene Slc4a4: 0.609
  pct.1, gene Slc25a20: 0.671
  pct.1, gene Slco1a4: 0.507
  pct.1, gene Snord118: 0.564
  pct.1, gene Tgoln1: 0.756
  pct.1, gene Tmed5: 0.714
  pct.1, gene Tobi: 0.649
  pct.1, gene Tsc22d3: 0.534
  pct.1, gene Zfp36l1: 0.601
  pct.1, gene Zfp91: 0.693
[1]
  Acaa1b avg_logFC: 0.282
  Acat1 avg_logFC: 0.2558
  Acot1 avg_logFC: 0.3106
  Agpat6 avg_logFC: 0.3143
  Agt avg_logFC: 0.255
  Akr1d1 avg_logFC: 0.2994
  Aldh9a1 avg_logFC: 0.2585
  Apo17a avg_logFC: 0.2518
  Apoc2 avg_logFC: 0.2781
  Aqp9 avg_logFC: 0.3178
  Arl4a avg_logFC: 0.2706
  Asl avg_logFC: 0.275
  Baat avg_logFC: 0.2728
  Bnip3 avg_logFC: 0.3208
  Cd36 avg_logFC: 0.3129
  Ces1e avg_logFC: 0.2566
  Cox5a avg_logFC: 0.2728
  Cox6a1 avg_logFC: 0.2746
  Cox8a avg_logFC: 0.2519
  Cpeb4 avg_logFC: 0.3011
  Cpox avg_logFC: 0.3229
  Cpt1a avg_logFC: 0.2626
  Creg1 avg_logFC: 0.2517
  Csad avg_logFC: 0.4207
  Ctage5 avg_logFC: 0.2535
  Cth avg_logFC: 0.2966
  Cxcl12 avg_logFC: 0.2822
  D4Wsu53e avg_logFC: 0.2928
  Decr2 avg_logFC: 0.3018
  Dhdh avg_logFC: 0.2626
  Etfdh avg_logFC: 0.2639
  Etnppl avg_logFC: 0.3154
  Fmo1 avg_logFC: 0.265
  G0s2 avg_logFC: 0.2656
  G6pc avg_logFC: 0.2541
  Gabarapl1 avg_logFC: 0.2932
  Gadd45b avg_logFC: 0.2598
  Gas5 avg_logFC: 0.2823
  Gm4952 avg_logFC: 0.2581
  Gsta2 avg_logFC: 0.311
  Gstt3 avg_logFC: 0.3026
  Gyk avg_logFC: 0.3134
  Hmgcl avg_logFC: 0.2744
  Hmgcs1 avg_logFC: 0.3251
  Hpgd avg_logFC: 0.3412
  Hsd17b7 avg_logFC: 0.3028
  Hsd17b10 avg_logFC: 0.2802
  Kif1b avg_logFC: 0.2961
  Leaf avg_logFC: 0.2616
  Mia3 avg_logFC: 0.2605
  Ndufa3 avg_logFC: 0.2743
  Ndufa7 avg_logFC: 0.26
  Nr1i3 avg_logFC: 0.3481
  Oat avg_logFC: 0.4904
  Pon1 avg_logFC: 0.2899
  Ppp1r3b avg_logFC: 0.251
  Ppp2r5a avg_logFC: 0.3505
  Ptms avg_logFC: 0.2863
  Pxmp4 avg_logFC: 0.2555
  Rdh16 avg_logFC: 0.3477
  Sc4mol avg_logFC: 0.3361
  Slc4a4 avg_logFC: 0.2977
  Slc25a20 avg_logFC: 0.2507
  Slco1a4 avg_logFC: 0.3049
  Snord118 avg_logFC: 0.3782
  Tgoln1 avg_logFC: 0.2809
  Tmed5 avg_logFC: 0.2523
  Tobi avg_logFC: 0.2958
  Tsc22d3 avg_logFC: 0.3362
  Zfp36l1 avg_logFC: 0.2964
  Zfp91 avg_logFC: 0.2775
[2]
  avg_logFC, gene Abcc3: 0.2743
  avg_logFC, gene Acaa1b: 0.282
  avg_logFC, gene Acat1: 0.2558
  avg_logFC, gene Acot1: 0.3106
  avg_logFC, gene Agpat6: 0.3143
  avg_logFC, gene Agt: 0.255
  avg_logFC, gene Akr1d1: 0.2994
  avg_logFC, gene Aldh9a1: 0.2585
  avg_logFC, gene Aplp2: 0.2903
  avg_logFC, gene Apo17a: 0.2518
  avg_logFC, gene Apoc2: 0.2781
  avg_logFC, gene Aqp9: 0.3178
  avg_logFC, gene Arl4a: 0.2706
  avg_logFC, gene Asl: 0.275
  avg_logFC, gene Baat: 0.2728
  avg_logFC, gene Bnip3: 0.3208
  avg_logFC, gene Cd36: 0.3129
  avg_logFC, gene Ces1e: 0.2566
  avg_logFC, gene Cox5a: 0.2728
  avg_logFC, gene Cox6a1: 0.2745
  avg_logFC, gene Cox8a: 0.2519
  avg_logFC, gene Cpeb4: 0.3011
  avg_logFC, gene Cpox: 0.3229
  avg_logFC, gene Cpt1a: 0.2626
  avg_logFC, gene Creg1: 0.2517
  avg_logFC, gene Csad: 0.4207
  avg_logFC, gene Ctage5: 0.2535
  avg_logFC, gene Cth: 0.2966
  avg_logFC, gene Cxcl12: 0.2821
  avg_logFC, gene D4Wsu53e: 0.2928
